For this test, the system named is NPY2R‐neurons. Description: MEA recording of neuronal firing, NPY2R‐neurons. The class given is cell-based, human. The following applies: PYY, 10 nM or 100 nM (both printed in Fig. 6 legend); day 27; 0 nM n = 8 electrodes, 100 nM n = 6 electrodes; Fig. 6F. The protocol:
Before initiating differentiation, the iPSCs (1–2 × 10^5 cells·cm^−2; Cell lines and cell culture section) were transferred to 6‐well plates (Corning, Inc., Corning, NY, USA) coated with 2‐methacryloyloxyethyl phosphorylcholine (MPC) polymer (Lipidure CM5206E; NOF, Tokyo, Japan). The cells were maintained in mTeSR1 cGMP medium containing 10 μM Y‐27632 (Fujifilm Wako Pure Chemical Industries) for 2 or 3 days to form embryoid body (EBs) in a rotary shaker at 95 r.p.m. (OS‐762RC; Optime, Tokyo, Japan). Subsequently, iPSCs were differentiated into neural crest cells (NCCs), as previously reported. Briefly, NCCs were induced from Ebs using knockout serum replacement (KSR) medium and N2 medium with graded addition of nerve growth factors and signaling factors. KSR medium was composed of DMEM‐F12 (Fujifilm Wako Pure Chemical Industries), 20% KSR (Thermo Fisher Scientific), 1% NEAA, 1% monothioglycerol (Fujifilm Wako Pure Chemical Industries), and 1% P/S. N2 medium consisted of DMEM‐F12, 1% N2 supplement (Fujifilm Wako Pure Chemical Industries), 1% NEAA, and 1% P/S. When EB formation was considered day 0 of induction, the medium was changed at days 2, 5, 7, 9, and 12. […]

For “PYY: PYY (4400‐v; Peptide Institute, Inc.); PYY (3–36) in Ca2+ imaging”, the Firing frequency result is “significantly increased fluorescence intensity and firing frequency”.

The record behind these values is publication PMC10761937, “Functional engineering of human iPSC‐derived parasympathetic neurons enhances responsiveness to gastrointestinal hormones” (FEBS Open Bio, 2023).
